The compounds below were run against human Nav1.7 (Homo sapiens, UniProt Q15858) (assay: FLIPR sodium dye assay (CoroNa Green AM Na+ dye, primary fluorescence assay) in recombinant Nav1.7/HEK293 cells). Settings: not given.
Format: cell-based

Chain of human Nav1.7 (Q15858 1-1977 isoform Q15858-3): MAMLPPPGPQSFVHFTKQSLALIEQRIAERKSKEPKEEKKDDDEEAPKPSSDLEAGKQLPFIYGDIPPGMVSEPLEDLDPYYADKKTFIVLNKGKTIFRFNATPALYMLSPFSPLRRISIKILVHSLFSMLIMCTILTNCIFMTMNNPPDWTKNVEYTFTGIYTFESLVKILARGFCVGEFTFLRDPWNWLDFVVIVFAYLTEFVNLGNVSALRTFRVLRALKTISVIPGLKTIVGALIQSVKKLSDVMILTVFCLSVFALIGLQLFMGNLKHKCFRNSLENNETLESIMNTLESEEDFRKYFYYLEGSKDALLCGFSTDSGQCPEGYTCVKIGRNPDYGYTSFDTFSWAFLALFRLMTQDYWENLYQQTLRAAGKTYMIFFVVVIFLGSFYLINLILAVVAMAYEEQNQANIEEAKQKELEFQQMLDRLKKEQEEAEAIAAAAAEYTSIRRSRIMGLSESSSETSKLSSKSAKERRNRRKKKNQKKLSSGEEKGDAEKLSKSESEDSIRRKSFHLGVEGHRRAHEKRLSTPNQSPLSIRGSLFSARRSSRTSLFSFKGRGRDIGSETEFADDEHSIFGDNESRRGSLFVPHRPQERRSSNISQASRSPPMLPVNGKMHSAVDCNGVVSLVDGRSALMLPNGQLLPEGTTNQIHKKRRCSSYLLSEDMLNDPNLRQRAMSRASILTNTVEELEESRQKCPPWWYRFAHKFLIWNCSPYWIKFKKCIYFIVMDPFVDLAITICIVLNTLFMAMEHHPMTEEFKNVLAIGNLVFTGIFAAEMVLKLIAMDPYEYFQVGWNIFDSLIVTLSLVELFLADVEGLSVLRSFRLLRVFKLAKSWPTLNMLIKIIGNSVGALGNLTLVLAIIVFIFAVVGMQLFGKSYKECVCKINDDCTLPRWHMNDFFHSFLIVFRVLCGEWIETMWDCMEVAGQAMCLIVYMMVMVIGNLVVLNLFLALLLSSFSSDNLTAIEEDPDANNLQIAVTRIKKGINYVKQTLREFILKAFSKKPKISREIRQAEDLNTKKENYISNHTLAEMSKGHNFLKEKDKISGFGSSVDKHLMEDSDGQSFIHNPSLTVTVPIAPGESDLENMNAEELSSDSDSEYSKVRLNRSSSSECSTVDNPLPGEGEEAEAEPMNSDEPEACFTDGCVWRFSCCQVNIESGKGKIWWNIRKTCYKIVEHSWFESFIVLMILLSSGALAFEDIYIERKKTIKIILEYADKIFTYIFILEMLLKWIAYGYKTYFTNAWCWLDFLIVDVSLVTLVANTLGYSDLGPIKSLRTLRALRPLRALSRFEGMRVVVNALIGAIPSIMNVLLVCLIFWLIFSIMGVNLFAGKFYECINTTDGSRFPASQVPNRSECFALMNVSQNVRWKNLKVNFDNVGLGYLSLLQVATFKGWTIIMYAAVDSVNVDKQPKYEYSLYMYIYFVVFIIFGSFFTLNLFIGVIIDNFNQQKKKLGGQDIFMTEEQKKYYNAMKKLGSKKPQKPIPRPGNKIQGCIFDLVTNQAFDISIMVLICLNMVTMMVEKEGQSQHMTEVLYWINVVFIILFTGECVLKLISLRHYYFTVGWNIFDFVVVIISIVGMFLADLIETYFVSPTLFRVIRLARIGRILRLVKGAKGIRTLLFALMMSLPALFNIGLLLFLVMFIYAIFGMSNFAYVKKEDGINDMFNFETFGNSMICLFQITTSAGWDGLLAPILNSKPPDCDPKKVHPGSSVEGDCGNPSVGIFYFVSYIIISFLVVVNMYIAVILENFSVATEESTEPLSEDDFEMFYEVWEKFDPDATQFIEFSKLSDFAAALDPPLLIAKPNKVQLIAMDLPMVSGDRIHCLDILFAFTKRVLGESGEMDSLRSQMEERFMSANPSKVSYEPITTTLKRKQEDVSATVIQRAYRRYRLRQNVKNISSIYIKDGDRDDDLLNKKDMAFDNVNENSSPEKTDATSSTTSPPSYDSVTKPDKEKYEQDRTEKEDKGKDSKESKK

SMILES	IC50 [µM]
NC(=O)c1cc(N[C@@H]2CCNC2=O)nc(-c2ccc(Oc3ccc(C(F)(F)F)cn3)cc2)n1 [compound 149, (R)-6-((2-oxopyrrolidin-3-yl)amino)-2-(4-((5-(trifluoromethyl)pyridin-2-yl)oxy)phenyl)pyrimidine-4-carboxamide]	0.32

Same assay, conditions: Table 6; CoroNa Green AM Na+ dye primary fluorescence assay; read-out: Nav1.7 Activity (μM) FLIPR assay IC50

IC50 [µM]	SMILES
> 20	NC(=O)c1cc(N[C@H]2CCNC2=O)nc(N2CC3CC2CN3Cc2ccc(F)cc2)n1 (stereo partly drawn) [compound 139, 2-(5-(4-fluorobenzyl)-2,5-diazabicyclo[2.2.1]heptan-2-yl)-6-(((S)-2-oxopyrrolidin-3-yl)amino)pyrimidine-4-carboxamide]
0.74	NC(=O)c1cc(N[C@H]2CCNC2=O)nc(-c2ccc(Oc3cnc(C(F)(F)F)cn3)cc2)n1 [compound 141, (S)-6-((2-oxopyrrolidin-3-yl)amino)-2-(4-((5-(trifluoromethyl)pyrazin-2-yl)oxy)phenyl)pyrimidine-4-carboxamide]
1.3	NC(=O)c1cc(N[C@H]2CCNC2=O)nc(-c2ccc(Oc3ccc(F)cc3)c(CN3CCCCC3)c2)n1 [compound 143, (S)-2-(4-(4-fluorophenoxy)-3-(piperidin-1-ylmethyl)phenyl)-6-((2-oxopyrrolidin-3-yl)amino)pyrimidine-4-carboxamide]
1.18	NC(=O)c1cc(N[C@H]2CCNC2=O)nc(-c2ccc(Oc3ccc(OCC(F)(F)F)cn3)cc2)n1 [compound 144, (S)-6-((2-oxopyrrolidin-3-yl)amino)-2-(4-((5-(2,2,2-trifluoroethoxy)pyridin-2-yl)oxy)phenyl)pyrimidine-4-carboxamide]
1.38	NC(=O)c1cc(N[C@H]2CCNC2=O)nc(-c2ccc(Oc3ccc(COCC(F)(F)F)cn3)cc2)n1 [compound 145, (S)-6-((2-oxopyrrolidin-3-yl)amino)-2-(4-((5-((2,2,2-trifluoroethoxy)methyl)pyridin-2-yl)oxy)phenyl)pyrimidine-4-carboxamide]
0.54	C[C@H](Oc1cc(C(N)=O)nc(-c2ccc(Oc3ccc(C(F)(F)F)cn3)cc2)n1)C(=O)NCCN1CCCC1 [compound 147, (S)-6-((1-oxo-1-((2-(pyrrolidin-1-yl)ethyl)amino)propan-2-yl)oxy)-2-(4-((5-(trifluoromethyl)pyridin-2-yl)oxy)phenyl)pyrimidine-4-carboxamide]
> 20	NC(=O)c1cc(N[C@H]2CCNC2=O)nc(-c2ccc(Oc3ncc(OCC(F)(F)F)cn3)cc2)n1 [compound 148, (S)-6-((2-oxopyrrolidin-3-yl)amino)-2-(4-((5-(2,2,2-trifluoroethoxy)pyrimidin-2-yl)oxy)phenyl)pyrimidine-4-carboxamide]
0.95	NC(=O)c1cc(N[C@H]2CCNC2=O)nc(N2CC(Oc3ccc(C(F)(F)F)cn3)C2)n1 [compound 150, (S)-6-((2-oxopyrrolidin-3-yl)amino)-2-(3-((5-(trifluoromethyl)pyridin-2-yl)oxy)azetidin-1-yl)pyrimidine-4-carboxamide]
0.35	NC(=O)c1cc(N[C@H]2CCNC2=O)nc(-c2ccc(Oc3cnc(OCC(F)(F)F)cn3)cc2)n1 [compound 151, (S)-6-((2-oxopyrrolidin-3-yl)amino)-2-(4-((5-(2,2,2-trifluoroethoxy)pyrazin-2-yl)oxy)phenyl)pyrimidine-4-carboxamide]
> 20	NC(=O)c1cc(N[C@H]2CCNC2=O)nc(-c2ccc(Oc3ccc(C(F)(F)F)nn3)cc2)n1 [compound 152, (S)-6-((2-oxopyrrolidin-3-yl)amino)-2-(4-((6-(trifluoromethyl)pyridazin-3-yl)oxy)phenyl)pyrimidine-4-carboxamide]
1.13	NC(=O)c1cc(N[C@H]2CCNC2=O)nc(-c2ccc(Oc3ccc(OCC(F)(F)F)nn3)cc2)n1 [compound 153, (S)-6-((2-oxopyrrolidin-3-yl)amino)-2-(4-((6-(2,2,2-trifluoroethoxy)pyridazin-3-yl)oxy)phenyl)pyrimidine-4-carboxamide]
> 20	O=C(O)c1cc(N[C@H]2CCNC2=O)nc(-c2ccc(Oc3ccc(C(F)(F)F)cn3)cc2)n1 [compound 157, (S)-6-((2-oxopyrrolidin-3-yl)amino)-2-(4-((5-(trifluoromethyl)pyridin-2-yl)oxy)phenyl)pyrimidine-4-carboxylic acid]
0.89	NC(=O)c1cc(N[C@H]2CCNC2=O)nc(-c2ccc(Oc3ccc(F)cc3)cc2CN2CCCCC2)n1 [compound 158, (S)-2-(4-(4-fluorophenoxy)-2-(piperidin-1-ylmethyl)phenyl)-6-((2-oxopyrrolidin-3-yl)amino)pyrimidine-4-carboxamide]
6.67	NC(=O)c1cc(N[C@H]2CCNC2=O)nc(-c2ccc(Oc3ccc(F)cc3)cc2CN2CCCC2)n1 [compound 160, (S)-2-(4-(4-fluorophenoxy)-2-(pyrrolidin-1-ylmethyl)phenyl)-6-((2-oxopyrrolidin-3-yl)amino)pyrimidine-4-carboxamide]
1.9	NC(=O)c1cc(N[C@H]2CCNC2=O)nc(-c2ccc(C(=O)c3ccc(C(F)(F)F)cn3)cc2)n1 [compound 162, (S)-6-((2-oxopyrrolidin-3-yl)amino)-2-(4-(5-(trifluoromethyl)picolinoyl)phenyl)pyrimidine-4-carboxamide]
1.43	NC(=O)c1cc(N[C@H]2CCNC2=O)nc(-c2ccc(Oc3ccc(F)cc3)cc2CNC2CC2)n1 [compound 163, (S)-2-(2-((cyclopropylamino)methyl)-4-(4-fluorophenoxy)phenyl)-6-((2-oxopyrrolidin-3-yl)amino)pyrimidine-4-carboxamide]
1.45	NC(=O)c1cc(N[C@H]2CCNC2=O)nc(-c2ccc(Oc3ccc(F)cc3)cc2Cn2cncn2)n1 [compound 164, (S)-2-(2-((1H-1,2,4-triazol-1-yl)methyl)-4-(4-fluorophenoxy)phenyl)-6-((2-oxopyrrolidin-3-yl)amino)pyrimidine-4-carboxamide]
1.19	NC(=O)c1cc(N[C@H]2CCNC2=O)nc(-c2ccc(Oc3cnc(C4CC4)cn3)cc2)n1 [compound 165, (S)-2-(4-((5-cyclopropylpyrazin-2-yl)oxy)phenyl)-6-((2-oxopyrrolidin-3-yl)amino)pyrimidine-4-carboxamide]
3.9	NC(=O)c1cc(N[C@H]2CCNC2=O)nc(Oc2ccc(Oc3ccc(C(F)(F)F)cn3)cc2)n1 [compound 166, (S)-6-((2-oxopyrrolidin-3-yl)amino)-2-(4-((5-(trifluoromethyl)pyridin-2-yl)oxy)phenoxy)pyrimidine-4-carboxamide]
> 20	NC(=O)c1cc(N[C@H]2CCNC2=O)nc(-c2ccc(Oc3ccc(F)cc3)cc2CN2CCC2)n1 [compound 167, (S)-2-(2-(azetidin-1-ylmethyl)-4-(4-fluorophenoxy)phenyl)-6-((2-oxopyrrolidin-3-yl)amino)pyrimidine-4-carboxamide]
1.73	NC(=O)c1cc(N[C@H]2CCNC2=O)nc(-c2ccc(Oc3ccc(C(F)(F)F)cc3CN3CCC3)cc2)n1 [compound 168, (S)-2-(4-(2-(azetidin-1-ylmethyl)-4-(trifluoromethyl)phenoxy)phenyl)-6-((2-oxopyrrolidin-3-yl)amino)pyrimidine-4-carboxamide]
0.74	NC(=O)c1cc(N[C@H]2CCNC2=O)nc(-c2ccc(Oc3ccc(C(F)(F)F)cc3CN3CCCC3)cc2)n1 [compound 169, (S)-6-((2-oxopyrrolidin-3-yl)amino)-2-(4-(2-(pyrrolidin-1-ylmethyl)-4-(trifluoromethyl)phenoxy)phenyl) pyrimidine-4-carboxamide]
1.17	C[C@H](Nc1cc(C(N)=O)nc(-c2ccc(Oc3ccc(C(F)(F)F)cc3CN3CCCC3)cc2)n1)C(N)=O [compound 170, (S)-6-((1-amino-1-oxopropan-2-yl)amino)-2-(4-(2-(pyrrolidin-1-ylmethyl)-4-(trifluoromethyl)phenoxy)phenyl) pyrimidine-4-carboxamide]
0.25	C[C@H](Nc1cc(C(N)=O)nc(-c2ccc(Oc3ccc(C(C)(C)C)cc3)cc2)n1)C(N)=O [compound 171, (S)-6-((1-amino-1-oxopropan-2-yl)amino)-2-(4-(4-(tert-butyl)phenoxy)phenyl)pyrimidine-4-carboxamide]
2.07	NC(=O)c1cc(N[C@H]2CCNC2=O)nc(Nc2ccc(Oc3ccc(C(F)(F)F)cn3)cc2)n1 [compound 172, (S)-6-((2-oxopyrrolidin-3-yl)amino)-2-((4-((5-(trifluoromethyl)pyridin-2-yl)oxy)phenyl)amino)pyrimidine-4-carboxamide]

SMILES	IC50 [µM]
NC(=O)c1cc(N[C@H]2CCNC2=O)nc(N2C3CCC2CC(Oc2ccc(C(F)(F)F)cc2-c2ccncc2)C3)n1 (stereo partly drawn) [compound 154, 6-(((S)-2-oxopyrrolidin-3-yl)amino)-2-(3-(2-(pyridin-4-yl)-4-(trifluoromethyl)phenoxy)-8-azabicyclo[3.2.1]octan-8-yl)pyrimidine-4-carboxamide]	0.13
C[C@H](Nc1cc(C(N)=O)nc(N2C3CCC2CC(Oc2ccc(C(F)(F)F)cc2-c2ccncc2)C3)n1)C(N)=O (stereo partly drawn) [compound 155, 6-(((S)-1-amino-1-oxopropan-2-yl)amino)-2-(3-(2-(pyridin-4-yl)-4-(trifluoromethyl)phenoxy)-8-azabicyclo[3.2.1]octan-8-yl)pyrimidine-4-carboxamide]	4.1
NC(=O)c1cc(N[C@H]2CCNC2=O)nc(N2C3CCC2CC(Oc2ccc(C(F)(F)F)cc2-c2cccnc2)C3)n1 (stereo partly shown) [compound 156]	1.77
NC(=O)c1cc(N[C@H]2CCNC2=O)nc(N2C3CCC2CC(Oc2ccc(F)cc2)C3)n1 (stereo partly drawn) [compound 159, 2-(3-(4-fluorophenoxy)-8-azabicyclo[3.2.1]octan-8-yl)-6-(((S)-2-oxopyrrolidin-3-yl)amino)pyrimidine-4-carboxamide]	1.29
C[C@H](Nc1cc(C(N)=O)nc(N2C3CCC2CC(Oc2ccc(F)cc2)C3)n1)C(N)=O (stereo partly drawn) [compound 161, 6-(((S)-1-amino-1-oxopropan-2-yl)amino)-2-(3-(4-fluorophenoxy)-8-azabicyclo[3.2.1]octan-8-yl)pyrimidine-4-carboxamide]	3.24

— patent US10196364B2, “Pyrimidine carboxamides as sodium channel blockers” (Purdue Pharma L.P., priority 2013, dated 2019)
